Assay results taken from ChEMBL document CHEMBL4483862, “Open-source discovery of chemical leads for next-generation chemoprotective antimalarials” (2018).

Tested on: Plasmodium berghei
Test: Luciferase/luciferin-expressing antifolate-resistant parasites were used to infect a culture of HepG2 cells that were pre-incubated with compounds. Infected hepatocytes emit light due to the luciferase reaction. Assay results are presented as the percent inhibition of light emission compared to control. […]
Assay type: functional
Conditions: sporozoite; for IC90: read-out: LUCIFERASE INFECTION ASSAY - IC90

Compound | IC90 [µM] | also measured
CCCSC(=S)c1c(C)nn(-c2ccccc2)c1O | > 11.3 | IC50 (PBLUC_HILL_SLOPE 10.5, PBLUC_R_SQUARED 0.318, read-out: LUCIFERASE INFECTION ASSAY - IC50): 10.1 µM
CN(C)CCn1c(=O)n(Cc2ccccc2)c(=O)c2c3c(sc21)CCCCC3 | > 8.3 | IC50 (PBLUC_HILL_SLOPE 10.5, PBLUC_R_SQUARED 0.0293, read-out: LUCIFERASE INFECTION ASSAY - IC50): 7.95 µM
CC(NCC(O)COC1CCC(C(C)(C)C)CC1)c1ccccc1 (stereo not given) | > 8.92 | IC50 (PBLUC_HILL_SLOPE 10.1, PBLUC_R_SQUARED 0.42, read-out: LUCIFERASE INFECTION ASSAY - IC50): 7.39 µM
CC(C)CC(N)c1csc(NC(=O)Nc2ccccc2-c2ccccc2)n1 (stereo not given) | 4.16 | IC50 (PBLUC_HILL_SLOPE 10.5, PBLUC_R_SQUARED 0.579, read-out: LUCIFERASE INFECTION ASSAY - IC50): 3.37 µM
Cc1ccc(NC(=O)c2cc(-c3cc(Cl)ccc3C)[nH]n2)cc1NS(C)(=O)=O | 7.29 | IC50 (PBLUC_HILL_SLOPE 10.6, PBLUC_R_SQUARED 0.45, read-out: LUCIFERASE INFECTION ASSAY - IC50): 5.92 µM
C/C(=N\Nc1cccc([N+](=O)[O-])c1)c1cc2ccccc2o1 | 4.09 | IC50 (PBLUC_HILL_SLOPE 10.9, PBLUC_R_SQUARED 0.683, read-out: LUCIFERASE INFECTION ASSAY - IC50): 3.34 µM
Cc1nc2ccccc2c(=O)n1/N=C/c1cn(-c2ccccc2)nc1-c1cccs1 | > 10 | IC50 (PBLUC_HILL_SLOPE 10.9, PBLUC_R_SQUARED 0.148, read-out: LUCIFERASE INFECTION ASSAY - IC50): 8.36 µM
CCCc1cc(=O)n2nc(C)c(-c3ccc(Cl)cc3)c2[nH]1 | 4.98 | IC50 (PBLUC_HILL_SLOPE 10.5, PBLUC_R_SQUARED 0.468, read-out: LUCIFERASE INFECTION ASSAY - IC50): 4.03 µM
c1csc(-c2cn3c(-c4ccsc4)cnc3cn2)c1 | > 11.6 | IC50 (PBLUC_HILL_SLOPE 10.9, PBLUC_R_SQUARED 0.0923, read-out: LUCIFERASE INFECTION ASSAY - IC50): > 11.6 µM
COc1cccc(-c2cn3c(-c4ccccc4)cnc3cn2)c1F | 10.2 | IC50 (PBLUC_HILL_SLOPE 10.4, PBLUC_R_SQUARED 0.353, read-out: LUCIFERASE INFECTION ASSAY - IC50): 8.27 µM
CNC(=O)c1ccc(CN(Cc2ccco2)C(=O)c2cc(-c3cccs3)nn2-c2ccccc2)cc1 | 4.68 | IC50 (PBLUC_HILL_SLOPE 10.4, PBLUC_R_SQUARED 0.208, read-out: LUCIFERASE INFECTION ASSAY - IC50): 3.79 µM
CC(C)CC(NC(=O)c1ccc(C#N)cc1)c1ccccc1 (stereo not given) | 9.52 | IC50 (PBLUC_HILL_SLOPE 10.9, 7.64, PBLUC_R_SQUARED 0.439, 0.355, read-out: LUCIFERASE INFECTION ASSAY - IC50): 8.11 µM
CC(C)(C)NC(=S)Nc1ccc(C(F)(F)F)cc1[N+](=O)[O-] | > 10.3 | IC50 (PBLUC_HILL_SLOPE 10.5, PBLUC_R_SQUARED 0.215, read-out: LUCIFERASE INFECTION ASSAY - IC50): 9.08 µM
CN(CC(=O)Nc1ccc(Oc2ccccc2)cc1)c1c(N)n(Cc2ccccc2)c(=O)[nH]c1=O | > 10 | IC50 (PBLUC_HILL_SLOPE 10.4, PBLUC_R_SQUARED 0.215, read-out: LUCIFERASE INFECTION ASSAY - IC50): 9.74 µM
CC(C)(C)OC(=O)N1CCc2nc(NC(=O)c3csc(-c4ccco4)n3)sc2C1 | > 10 | IC50 (PBLUC_HILL_SLOPE 10.5, PBLUC_R_SQUARED 0.574, read-out: LUCIFERASE INFECTION ASSAY - IC50): 9.17 µM
O=c1c2ccccc2oc2nc(-c3ccccc3)n(Cc3ccccc3)c(=O)c12 | 4.41 | IC50 (PBLUC_HILL_SLOPE 10.1, PBLUC_R_SQUARED 0.696, read-out: LUCIFERASE INFECTION ASSAY - IC50): 3.55 µM
Cc1c(C(=O)OCC(=O)c2ccc(OC(F)F)cc2)sc2nc3n(c(=O)c12)CCC3 | 9.86 | IC50 (PBLUC_HILL_SLOPE 10.3, PBLUC_R_SQUARED 0.714, read-out: LUCIFERASE INFECTION ASSAY - IC50): 7.97 µM
COc1ccc2[nH]c(C)c(-c3csc(NC(=O)c4ccccn4)n3)c2c1 | > 9.06 | IC50 (PBLUC_HILL_SLOPE 10.6, PBLUC_R_SQUARED 0.566, read-out: LUCIFERASE INFECTION ASSAY - IC50): 7.84 µM
COc1cccc(-c2cn3c(-c4ccc(C(=O)NC5CC5)cc4)cnc3cn2)c1F | 7.93 | IC50 (PBLUC_HILL_SLOPE 10.9, PBLUC_R_SQUARED 0.72, read-out: LUCIFERASE INFECTION ASSAY - IC50): 6.48 µM
Cc1ccc(C(=O)/C=C/c2cn(C)c(=O)n(C)c2=O)c(C)c1 | > 10 | IC50 (PBLUC_HILL_SLOPE 10.4, PBLUC_R_SQUARED 0.461, read-out: LUCIFERASE INFECTION ASSAY - IC50): 8.74 µM

Compound | IC90 [µM] | also measured
COc1cc(OC)cc(-c2cn3c(-c4cccc(OC(F)(F)F)c4)cnc3cn2)c1 | > 7.94 | IC50 (PBLUC_HILL_SLOPE 10.9, PBLUC_R_SQUARED 0.156, read-out: LUCIFERASE INFECTION ASSAY - IC50): > 7.94 µM
Cc1ccccc1-c1ccnc2c1c(=O)[nH]c(=O)n2Cc1ccccc1 | > 9.61 | IC50 (PBLUC_HILL_SLOPE 10.5, PBLUC_R_SQUARED 0.045, read-out: LUCIFERASE INFECTION ASSAY - IC50): > 9.61 µM
CCCOc1c(/C=C/C(=O)c2ccc(OCC#N)cc2)cccc1OCC | 9.68 | IC50 (PBLUC_HILL_SLOPE 10.6, PBLUC_R_SQUARED 0.425, read-out: LUCIFERASE INFECTION ASSAY - IC50): 7.88 µM
CN(Cc1ccccc1NC(=O)c1ccc2c(c1)OCC(=O)N2)C1CCCCC1 | > 10 | IC50 (PBLUC_HILL_SLOPE 10.4, PBLUC_R_SQUARED 0.15, read-out: LUCIFERASE INFECTION ASSAY - IC50): 9.56 µM
Cc1cc(OCC(=O)NCCc2c(C)cc(C(C)(C)C)cc2C)no1 | 6.12 | IC50 (PBLUC_HILL_SLOPE 10.6, 8.08, PBLUC_R_SQUARED 0.262, 0.836, read-out: LUCIFERASE INFECTION ASSAY - IC50): 4.78 µM
COc1cncc(-c2cc(Nc3ccc(Oc4ccccc4)cc3)ncn2)c1 | > 8.91 | IC50 (PBLUC_HILL_SLOPE 10.3, PBLUC_R_SQUARED 0.501, read-out: LUCIFERASE INFECTION ASSAY - IC50): 7.76 µM
COc1cc(-c2cc(-c3ccccc3F)cnc2N)ccc1O | 4.23 | IC50 (PBLUC_HILL_SLOPE 10.3, PBLUC_R_SQUARED 0.764, read-out: LUCIFERASE INFECTION ASSAY - IC50): 3.41 µM
COc1ccc(OC)c(S(=O)(=O)N2[C@@H]3CC[C@@H](C3)[C@H]2c2nc3cccc(OCc4ccccc4)c3[nH]2)c1 | > 10 | IC50 (PBLUC_HILL_SLOPE 10.6, PBLUC_R_SQUARED 0.0638, read-out: LUCIFERASE INFECTION ASSAY - IC50): > 10 µM
Clc1ccc(-c2cnc3cnc(-c4ccccc4)cn23)cc1 | 4.82 | IC50 (PBLUC_HILL_SLOPE 10.1, PBLUC_R_SQUARED 0.74, read-out: LUCIFERASE INFECTION ASSAY - IC50): 3.88 µM
COCCNC(=S)Nc1ccccc1CC(c1c[nH]c2ccccc12)c1c[nH]c2ccccc12 | > 10 | IC50 (PBLUC_HILL_SLOPE 10.3, PBLUC_R_SQUARED 0.121, read-out: LUCIFERASE INFECTION ASSAY - IC50): 9.41 µM
O=C1/C(=C/Nc2cccc(O)c2)c2ccccc2C(=O)N1Cc1ccccc1 | 9.61 | IC50 (PBLUC_HILL_SLOPE 10.5, PBLUC_R_SQUARED 0.272, read-out: LUCIFERASE INFECTION ASSAY - IC50): 7.8 µM
CCCn1c(-c2cccs2)nc2c(c(=O)c3ccccc3n2C)c1=O | 3.69 | IC50 (PBLUC_HILL_SLOPE 10.5, PBLUC_R_SQUARED 0.782, read-out: LUCIFERASE INFECTION ASSAY - IC50): 3 µM
CCOc1ccccc1/C=N/n1c(-c2ccc(CC)cc2)cs/c1=N\c1cccc(OC)c1 | 3.81 | IC50 (PBLUC_HILL_SLOPE 10.6, PBLUC_R_SQUARED 0.562, read-out: LUCIFERASE INFECTION ASSAY - IC50): 3.1 µM
Cc1ccc(O)c(C(=O)c2cn/c(=N\c3ccccc3)n(-c3ccccc3)c2)c1 | 4.08 | IC50 (PBLUC_HILL_SLOPE 10.6, PBLUC_R_SQUARED 0.86, read-out: LUCIFERASE INFECTION ASSAY - IC50): 3.32 µM
CCCCOc1ccc(Nc2nc(C(N)Cc3ccc(OC)cc3)cs2)nn1 (stereo not given) | 3.76 | IC50 (PBLUC_HILL_SLOPE 10.9, PBLUC_R_SQUARED 0.27, read-out: LUCIFERASE INFECTION ASSAY - IC50): 3.08 µM
Cc1cc(C)c(C)c(S(=O)(=O)N2CCN(S(=O)(=O)c3ccc(C(C)C)cc3)CC2)c1C | > 10 | IC50 (PBLUC_HILL_SLOPE 10.5, PBLUC_R_SQUARED 0.247, read-out: LUCIFERASE INFECTION ASSAY - IC50): 8.75 µM
CNc1snc(C)c1C(=O)N(C)Cc1ccc(F)cc1F | 4.37 | IC50 (PBLUC_HILL_SLOPE 10.5, PBLUC_R_SQUARED 0.526, read-out: LUCIFERASE INFECTION ASSAY - IC50): 3.55 µM
CCN(CC)c1ccc(NC(=O)c2[nH]nc3ccccc23)cc1S(=O)(=O)Nc1ccc(OC)cc1 | > 10 | IC50 (PBLUC_HILL_SLOPE 10.5, PBLUC_R_SQUARED 0.206, read-out: LUCIFERASE INFECTION ASSAY - IC50): 9.2 µM
COc1cc(-c2cnc(N)c(-c3ccc(F)c(Cl)c3)c2)ccc1O | > 9.57 | IC50 (PBLUC_HILL_SLOPE 10.3, PBLUC_R_SQUARED 0.243, read-out: LUCIFERASE INFECTION ASSAY - IC50): 8.4 µM
COC(=O)c1noc(C)c1-c1ccnn1C(=O)Nc1cccc(Cl)c1 | 8.47 | IC50 (PBLUC_HILL_SLOPE 10.3, PBLUC_R_SQUARED 0.543, read-out: LUCIFERASE INFECTION ASSAY - IC50): 6.84 µM
